Where two headings read alike, the source gives them in different places.
How the values were obtained:
[1] = tested on: Ba/F3 parent cells; assay: Cytotoxicity experiment (CellTiter-Glo), Ba/F3 parent cells; assay type: cell-based; conditions: Ba/F3 parental cells with 8 ng/ml IL-3, 3 days incubation
Description: 1. […] The cell plates were placed in carbon dioxide culture and incubated overnight.
2. Preparation of test compounds: The test compounds were dissolved in DMSO and subjected to a 3.16-fold gradient dilution in triplicate, 9 concentrations were obtained, starting from the concentration of 10 μM.
3. Treatment of Cells with compounds: Compounds at various concentrations were transferred to cell plates. The cell plates were incubated in a carbon dioxide incubator for 3 days.
4. Detection: CellTiter-Glo4 reagent was added to the cell plates, which were incubated for 30 minutes at room temperature to stabilize the luminescence signal. Readings were performed using a PerkinElmer Envision multi-label analyzer.

[2] = tested on: Ebola virus; conditions: in vitro; cited from earlier work
[3] = Pharmacokinetic experiment in rats; assay type: in vivo, Sprague-Dawley rats; set-up: Cl pred: unit not given here; conditions: rat; for MRT inf: read-out: MRTINF pred; for F (oral availability): PO 20 mg/kg vs IV 2 mg/kg
Description: Rats were fed with a standard diet and water. Fasting began 16 hours before the test. The drugs were dissolved in PEG400 and dimethyl sulfoxide. Blood was collected from the eyelids at a time point of 0.083 hour, 0.25 hour, 0.5 hour, 1 hour, 2 hours, 4 hours, 6 hours, 8 hours, 12 hours, and 24 hours after administration. Rats were briefly anesthetized after inhalation of ether, and 300 μL of blood samples were collected from the eyelids to test tubes. There was 30 μL of 1% heparin salt solution in the test tube. […] After the blood sample was collected at the last time point, rats were anesthetized with ether and sacrificed. Immediately after the collection, blood samples were sufficiently mixed by gently inverting the tube at least 5 times, and were placed on ice. […] Plasma was stored at −80° C. prior to analysis. The concentration of the compounds disclosed herein in plasma was determined by LC-MS/MS. Pharmacokinetic parameters were calculated based on drug concentrations in plasma of each animal at different time points.

[4] = tested on: CML; conditions: combined with nilotinib; cited from earlier work
[5] = male, Sprague-Dawley, plasma, IV 2 mg/kg single dose
[6] = male, Sprague-Dawley, plasma, PO 20 mg/kg single dose

O=C(Nc1ccc(OC(F)(F)Cl)cc1)c1cnc(N2CC[C@@H](O)C2)c(-c2nnn[nH]2)c1 [Example 5, (R)-6-(3-hydroxypyrrolidin-1-yl)-5-(1H-1,2,34-tetrazol-5-yl)-N-(4-(chlorodifluoromethoxy)phenyl)nicotinamide]
IC50 [1]: > 1000 nM

O=C(Nc1ccc(OC(F)(F)Cl)cc1)c1cnc(N2CC[C@@H](O)C2)c(-c2ccns2)c1 [Example 3, (R)-6-(3-hydroxypyrrolidin-1-yl)-5-(isothiazol-5-yl)-N-(4-(chlorodifluoromethoxy)phenyl) nicotinamide]
IC50 ([1]; Mus musculus, BaF3, 72 h): > 1000 nM

Cc1ccc(NC(=O)c2ccc(CN3CCN(C)CC3)cc2)cc1Nc1nccc(-c2cccnc2)n1 [Imatinib]
release of Ebola viral particles from infected cells [2]: stop the release of Ebola viral particles

O=C(Nc1ccc(OC(F)(F)Cl)cc1)c1cnc(N2CC[C@@H](O)C2)c(-c2cnn[nH]2)c1 [Example 4, (R)-6-(3-hydroxypyrrolidin-1-yl)-5-(1H-1,2,3-triazol-5-yl)-N-(4-(chlorodifluoromethoxy)phenyl)nicotinamide]
IC50 ([1]; Mus musculus, BaF3, 72 h): > 1000 nM

O=C(Nc1ccc(OC(F)(F)Cl)cc1)c1cnc(N2CC[C@@H](O)C2)c(-c2ccsn2)c1 [Example 1, (R)-6-(3-hydroxypyrrolidin-1-yl)-5-(isothiazol-3-yl)-N-(4-(chlorodifluoromethoxy)phenyl) nicotinamide]
IC50 ([1]; Mus musculus, BaF3, 72 h): > 1000 nM

O=C(Nc1ccc(OC(F)(F)Cl)cc1)c1cnc(N2CC[C@@H](O)C2)c(-c2cnsc2)c1 [Example 2, (R)-6-(3-hydroxypyrrolidin-1-yl)-5-(isothiazol-4-yl)-N-(4-(chlorodifluoromethoxy)phenyl) nicotinamide]
AUC(0-t) [3, 5]: 5450 ng·h/mL | Cmax [3, 5]: 5280 ng/mL | MRT inf [3, 5]: 1.17 h | Vd ([3]; male, Sprague-Dawley, plasma, IV 2 mg/kg single dose, read-out: Vz pred): 0.57 L/kg | AUC(0-t) [3, 6]: 21100 ng·h/mL | Cmax [3, 6]: 2580 ng/mL | MRT inf [3, 6]: 5.13 h | Cl pred ([3]; IV 2 mg/kg single dose): 0.37 | Cl pred ([3]; PO 20 mg/kg single dose): 0.96 | Vz pred ([3]; PO 20 mg/kg single dose): 2.56 L/kg | F (oral availability) [3]: 38.70% | metabolic parameters (Cmax, AUClast, F %) compared with ABL-001 ([3]; oral administration): better metabolic parameters | IC50 ([1]; Mus musculus, BaF3, 72 h): > 1000 nM

Cc1cn(-c2cc(NC(=O)c3ccc(C)c(Nc4nccc(-c5cccnc5)n4)c3)cc(C(F)(F)F)c2)cn1 [nilotinib]
release of Ebola viral particles from infected cells [2]: stop the release of Ebola viral particles

O=C(Nc1ccc(OC(F)(F)Cl)cc1)c1cnc(N2CC[C@@H](O)C2)c(-c2ccn[nH]2)c1 [ABL-001, (R)—N-(4-(chlorodifluoromethoxy)phenyl)-6-(3-hydroxypyrrolidin-1-yl)-5-(1H-pyrazol-5-yl)nicotinamide, reference compound]
F (oral availability) [3]: 19.86% | eradication of CML in a mouse model [4]: effective in eradicating CML

O=C(Nc1ccc(OC(F)(F)Cl)cc1)c1cnc(N2CC[C@@H](O)C2)c(-c2ncns2)c1 [Example 6]
IC50 ([1]; Mus musculus, BaF3, 72 h): > 1000 nM

Reference: US11319317B2, “(Hetero)arylamide compound for inhibiting protein kinase activity” (Shenzhen TargetRx, Inc., priority 2017, dated 2022)
